# What was measured:
# [1] = Aqueous solubility of the compound; type: physicochemical; details: buffer
# [2] = Plasma clearance in Balb/C mouse at 1 mg/kg, po or 5 mg/kg, iv; type: ADME, organism-based; details: in vivo
# [3] = Intrinsic clearance in mouse liver; type: ADME, tissue-based; details: read-out: CLH
# SUD4 [4] = assay: Antitumor activity against CXCR4 human SU-DHL-4 cells xenografted in mouse assessed as increase in mRNA expression at 5 mg/kg, administered daily for 3days by RT-PCR analysis; type: functional
# SUD4 [5] = assay: Decrease in number of living cells in human SUDHL4 cells at […] incubated for 48 hrs by EdU flow cytometry assay (reference value: 48%); parameters: scale not given: the % may be the effect or the level left; details: dose 2.5 µM
# Farage = assay: cells; details: Homo sapiens
# Description: Antiproliferative activity against BCL-6 dependent human Farage cells by CCK-8 assay
# Toledo = assay: cells; details: Homo sapiens
# Description: Antiproliferative activity against BCL-6 independent human Toledo cells by CCK-8 assay
# SUD4 [6] = assay: Antitumor activity against human SU-DHL-4 cells xenografted in mouse assessed as reduction in tumor weight at 5 mg/kg, iv treated every other day for 3 days; type: functional; parameters: scale not given: the % may be the effect or the level left; details: time 3 day
# DOHH-2 = assay: cells; details: Homo sapiens
# Description: Antiproliferative activity against BCL-6 dependent human DOHH-2 cells by CCK-8 assay
# [7] = Intrinsic clearance in mouse microsomes; type: ADME, Microsome
# SUD4 [8] = assay: Antitumor activity against ATR human SU-DHL-4 cells xenografted in mouse assessed as increased in mRNA expression at 5 mg/kg, administered daily for 3days by RT-PCR analysis; type: functional
# [9] = Metabolic stability in human liver microsome assessed as half life; type: ADME; details: liver microsomes
# SUD4 [10] = assay: Decrease in number of living cells in human SUDHL4 cells at 0.625 uM incubated for 48 hrs by flow cytometry (reference value: 48%); parameters: scale not given: the % may be the effect or the level left
# SUD4 [11] = assay: Antitumor activity against CD69 human SU-DHL-4 cells xenografted in mouse assessed as increase in mRNA expression at 5 mg/kg, administered daily for 3days by RT-PCR analysis; type: functional
# SUD4 [12] = assay: Antitumor activity against human SU-DHL-4 cells xenografted in mouse assessed as reduction in tumor volume at 5 mg/kg, iv treated every other day for 3 days; type: functional; parameters: scale not given: the % may be the effect or the level left; details: time 3 day
# SUD4 [13] = assay: Decrease in number of living cells in human SUDHL4 cells at 1.25 uM incubated for 48 hrs by EdU flow cytometry assay (reference value: 48%); parameters: scale not given: the % may be the effect or the level left
# SUD4 [14] = assay: cells; details: Homo sapiens, SU-DHL-4
# Description: Antiproliferative activity against BCL-6 dependent human SU-DHL-4 cells by CCK-8 assay
# OCI-Ly7 = assay: cells; details: Homo sapiens
# Description: Antiproliferative activity against BCL-6 dependent human OCILY7 cells by CCK-8 assay
# [15] = Oral bioavailability in SCID mouse plasma at 10 mg/kg; type: ADME, organism-based; parameters: dose 10 mg/kg, route po
# [16] = target: B-cell lymphoma 6 protein (Homo sapiens, UniProt P41182); assay: Inhibition of human BCL6 […] domain
# [17] = Oral bioavailability in SCID mouse plasma at 100 mg/kg; type: ADME, organism-based
# BCL-6/NCOR2 = BCL-6/NCOR2 (Homo sapiens, UniProt P41182); assay: Inhibition of BCL6/SMRT protein protein interaction (unknown origin) by TR-FRET assay
structure (smiles),measurement,setting,value
N#Cc1c(NCc2ccccc2)ccnc1Cl,solubility,[1],60 µM
C[C@@H]1CN(c2ncc(Cl)c(Nc3ccc4c(c3)n(CCC(C)(C)O)c(=O)n4C)n2)C[C@H](C)C1(F)F,clearance,[2],20 mL/min/kg
N#Cc1c(NCC2CC2)ccnc1Cl,solubility,[1],300 µM
Cn1c(=O)n(C)c2cc(Nc3ncccc3C#N)ccc21,solubility,[1],300 µM
COc1cc(Nc2nc(N3C[C@@H](C)N[C@@H](C)C3)ncc2F)ccc1NC(=O)c1ccc(C2=CCCC2)s1,CLint scaled,[3],< 38 mL/min/kg
same,Activity,SUD4 [4],>60%
same,Activity,SUD4 [5],6.6%
same,IC50,Farage,1000 nM
same,IC50,Toledo,3300 nM
same,Activity,SUD4 [6],70%
same,IC50,DOHH-2,1000 nM
same,microsomal CLint,[7],< 9.6 µL/min/mg
same,Activity,SUD4 [8],>200%
same,half-life,[9],> 1 h
same,Activity,SUD4 [10],27%
same,Activity,SUD4 [11],>150%
same,Activity,SUD4 [12],60%
same,Activity,SUD4 [13],13%
same,IC50,SUD4 [14],1000 nM
same,IC50,OCI-Ly7,1000 nM
Cn1c(=O)n(C)c2cc(Nc3cc(SCc4ccccc4)ncn3)ccc21,solubility,[1],< 30 µM
CNC(=O)COc1cc2cc(Nc3nc(N4C[C@H](C)C[C@H](C)C4)ncc3Cl)ccc2n(C)c1=O,AUC,[15],1.86 µM·h
same,Cmax,[15],193 nM
same,IC50,[16],≤ 3 nM
same,Cmax,[17],599 nM
CNC(=O)COc1cc2cc(Nc3nc(N4CCC(C(=O)N(C)C)CC4)ncc3Cl)cc(OC)c2n(C)c1=O,IC50,[16],≤ 3 nM
COc1ccc(Nc2nc(NCC(C)C)ncc2F)cc1Cl,IC50,BCL-6/NCOR2,19000 nM

# Source: ChEMBL document CHEMBL5223079, “Progress toward B-Cell Lymphoma 6 BTB Domain Inhibitors for the Treatment of Diffuse Large B-Cell Lymphoma and Beyond” (J Med Chem, 2021)
